The subject of series [1] is plasmid DNA. The experiment in a line: agarose gel electrophoresis (gel retardation) of nucleic acid-aminoglycoside complexes. It is filed as binding. The following applies: plasmid DNA complexed with 5-100 mM aminoglycoside. As to the method: Plasmid DNA and the three different prototype aminoglycosides (neomycin, gentamycin, tobramycin) were diluted to 2× the final desired concentration in separate vials. In formulations with a molar excess of DNA, the diluted aminoglycoside solution was added to the DNA using a pipette with light vortexing. In formulations with a molar excess of aminoglycoside, the DNA was added to the aminoglycoside solution with light vortexing. The formulations were allowed to rest for about 30 minutes before characterization. Complexes of Nucleic Acid-Aminoglycoside were prepared according to the above described method and then analyzed using agarose gel electrophoresis to verify that the nucleic acids were being complexed with the aminoglycosides. Specifically, complexes having varying doses of DNA to three different aminoglycosides were prepared such that plasmid DNA was complexed with 5-100 mM of Neomycin, Tobramycin and Gentamicin.

For series [2] the following is noted: intravenous and subcutaneous; patients with normal renal function; Physicians' Desk Reference, 2001; cited from earlier work.

Consider neomycin, for which the “gel retardation (complexation of DNA with aminoglycoside)” value in series [1] was “dose-dependant increase in gel retardation”. On the same count and under the same terms, the entry for `NC[C@H]1O[C@H](O[C@H]2[C@H](O)[C@@H](O[C@H]3O[C@H](CO)[C@@H](O)[C@H](N)[C@H]3O)[C@H](N)C[C@@H]2N)[C@H](N)C[C@@H]1O` [Tobramycin, tobramycin] is “dose-dependant increase in gel retardation”. For the compound `NCC[C@H](O)C(=O)N[C@@H]1C[C@H](N)[C@@H](O[C@H]2O[C@H](CN)[C@@H](O)[C@H](O)[C@H]2O)[C@H](O)[C@H]1O[C@H]1O[C@H](CO)[C@@H](O)[C@H](N)[C@H]1O` [amikacin], in series [2], the “high dose delivered without adverse or unacceptable therapeutic effects” value was 15 mg/kg of body weight per day. For Gentamicin, the “gel retardation (complexation of DNA with aminoglycoside)” value in series [1] is listed as “dose-dependant increase in gel retardation”. For the same compound, in series [2], the “high dose delivered without adverse or unacceptable therapeutic effects” value was 5 mg/kg of body weight per day.

(Values after patent US20050019926A1, “Compositions of nucleic acids and cationic aminoglycosides and methods of using and preparing the same” (Aradigm Corporation, priority 2001, published 2005).)
